Measured values as given in ChEMBL document CHEMBL4038295, “Calofolic acids A-F, chromanones from the bark of Calophyllum scriblitifolium with vasorelaxation activity” (Bioorg Med Chem Lett, 2017).

tested on: Thoracic aorta; experiment: Vasorelaxing effect in endothelium-intact Wistar rat thoracic aorta ring assessed as inhibition of phenylephrine-stimulated contraction; type: functional, tissue-based

SMILES	IC50	inhibition
C[C@H](CC(=O)O)c1c2c(c(O)c3c1O[C@H](C)[C@H](C)C3=O)C=CC(C)(C)O2	10.3 µM	Dose-dependent effect
CC[C@H](CC(=O)O)c1c2c(c(O)c3c1O[C@H](C)[C@H](C)C3=O)C=CC(C)(C)O2	6.07 µM	Dose-dependent effect
CC[C@H](CC(=O)O)c1c2c(c(O)c3c1O[C@H](C)[C@@H](C)C3=O)C=CC(C)(C)O2	10.4 µM	Dose-dependent effect

Second part, led by results:

IC50	SMILES	inhibition
18.9 µM	CCC[C@H](CC(=O)O)c1c2c(c(O)c3c1O[C@H](C)[C@H](C)C3=O)C=CC(C)(C)O2	Dose-dependent effect
12.1 µM	CCCC[C@H](CC(=O)O)c1c2c(c(O)c3c1O[C@H](C)[C@H](C)C3=O)C=CC(C)(C)O2	Dose-dependent effect
13.8 µM	CCC[C@H](CC(=O)O)c1c2c(c(O)c3c1O[C@H](C)[C@@H](C)C3=O)C=CC(C)(C)O2	Dose-dependent effect
